Measured values taken from patent publication US20040224917A1, “Compositions and methods for combination antiviral therapy” (GILEAD SCIENCES, INC., priority 2003, published 2004).
Structures can show the parent of a compound that is named as a salt.

How the values were obtained:
[1] = test system: HIV
[2] = test system: HIV-1; conditions: in combination with recombinant soluble CD4 castanospermine and recombinant interferon-α; cited from earlier work
[3] = test system: HIV replication; conditions: in combination with PMPA, d4T, ddC, nelfinavir, ritonavir, saquinavir; cited from earlier work
[4] = in tablets, six months at 40° C./75% RH, packaged and stored with desiccant
[5] = each dose regimen greater or equal to 200 mg, two weeks, monotherapy

Q: Which results are given for `Nc1nc(=O)n([C@@H]2CS[C@H](CO)O2)cc1F` (single isomer, unassigned) [Emtricitabine]?
A: viral suppression [1, 5]: ≥ 98%; viral suppression (log 10) [1, 5]: ≥ 1.75 log 10; reduction of viral load, average ([1]; once-a-day dose of 200 mg): 99%; reduction of viral load, average (log 10) ([1]; once-a-day dose of 200 mg): 1.92 log 10

Q: For `Cc1cn([C@H]2C[C@H](N=[N+]=[N-])[C@@H](CO)O2)c(=O)[nH]c1=O` [AZT, 3′-azido, 3′-deoxythymidine], which “synergy of antiviral activity in vitro” value [2] is on record?
A: synergistic antiviral activity

Q: With `CC(C)(C)C(=O)OCOP(=O)(COCCn1cnc2c(N)ncnc21)OCOC(=O)C(C)(C)C` [Adefovir dipivoxil] as the compound, how does the “synergy of inhibition of HIV replication” value [3] read?
A: minor to moderate synergistic inhibition

Q: For `CC(C)OC(=O)OCOP(=O)(CO[C@H](C)Cn1cnc2c(N)ncnc21)OCOC(=O)OC(C)C` [Tenofovir disoproxil fumarate, 9-[(R)-2-[[bis[[(isopropoxycarbonyl)oxy]methoxy]phosphinyl]methoxy]propyl]adenine fumarate (1:1)], which “loss in % label strength (significant defined as ≧5% degradation)” value [4] is on record?
A: No significant loss
